Measurements reported in ChEMBL document CHEMBL4732113, “Exploiting the tolerant region I of the non-nucleoside reverse transcriptase inhibitor (NNRTI) binding pocket. Part 2: Discovery of diarylpyrimidine derivatives as potent HIV-1 NNRTIs with high Fsp values and favorable drug-like properties” (Eur J Med Chem, 2021).

Tests used:
[1] = system: Human immunodeficiency virus 1; test: Antiviral activity against HIV1 RES056 harboring K103N/Y181C double mutant infected in human MT4 cells assessed as reduction in virus-induced cytopathic effect by MTT assay; type: functional, organism-based
[2] = Selectivity index, ratio of CC50 for human MT4 cells to EC50 for antiviral activity against HIV HIV1 RES056 harboring K103N/Y181C double mutant infected in human MT4 cells; type: toxicity, cell-based; conditions: read-out: Ratio CC50/EC50
[3] = (§1) Cytotoxicity against human MT4 cells assessed as reduction in cell viability by MTT assay; type: cell-based; conditions: MT4 cells
[4] = system: Human immunodeficiency virus 1; test: Antiviral activity against HIV1 3B infected in human MT4 cells assessed as reduction in virus-induced cytopathic effect by MTT assay; type: functional, organism-based; conditions: Human immunodeficiency virus 1, 3B
[5] = Selectivity index, ratio of CC50 for human MT4 cells to EC50 for antiviral activity against HIV 3B infected in human MT4 cells; type: toxicity, cell-based; conditions: read-out: Ratio CC50/EC50
[6] = system: Human immunodeficiency virus 1; test: Antiviral activity against HIV1 harboring Y181C mutant infected in human MT4 cells assessed as reduction in virus-induced cytopathic effect by MTT assay; type: functional, organism-based; conditions: Human immunodeficiency virus 1, MT4
[7] = system: Human immunodeficiency virus 1; test: Antiviral activity against HIV1 harboring L100I mutant infected in human MT4 cells assessed as reduction in virus-induced cytopathic effect by MTT assay; type: functional, organism-based; conditions: Human immunodeficiency virus 1, MT4
[8] = system: Human immunodeficiency virus 1; test: Antiviral activity against HIV1 harboring Y188L mutant infected in human MT4 cells assessed as reduction in virus-induced cytopathic effect by MTT assay; type: functional, organism-based; conditions: Human immunodeficiency virus 1, MT4
[9] = system: Human immunodeficiency virus 1; test: Antiviral activity against HIV1 harboring K103N mutant infected in human MT4 cells assessed as reduction in virus-induced cytopathic effect by MTT assay; type: functional, organism-based; conditions: Human immunodeficiency virus 1, MT4
[10] = system: Human immunodeficiency virus 1; test: Antiviral activity against HIV1 harboring F227L/V106A mutant infected in human MT4 cells assessed as reduction in virus-induced cytopathic effect by MTT assay; type: functional, organism-based; conditions: Human immunodeficiency virus 1, MT4
[11] = system: Human immunodeficiency virus 1; test: Antiviral activity against HIV1 harboring E138K mutant infected in human MT4 cells assessed as reduction in virus-induced cytopathic effect by MTT assay; type: functional, organism-based; conditions: Human immunodeficiency virus 1, MT4
[12] = biological target: Human immunodeficiency virus type 1 reverse transcriptase (Human immunodeficiency virus 1, UniProt Q72547); test: Inhibition of HIV1 reverse transcriptase assessed as reduction in biotin-dUTP incorporation into template incubated for 1 hr by ELISA
MT4 = test: as §1; type: cell-based; conditions: mt4
[13] = system: Human immunodeficiency virus 1; test: Potency index, ratio of etravirine EC50 to test compound EC50 for antiviral activity against HIV1 3B infected in human MT4 cells assessed as reduction in virus-induced cytopathic effect by MTT assay; type: functional
[14] = system: Human immunodeficiency virus 1; test: Potency index, ratio of etravirine EC50 to test compound EC50 for antiviral activity against HIV1 harboring K103N mutant infected in human MT4 cells assessed as reduction in virus-induced cytopathic effect by MTT assay; type: functional
[15] = Human immunodeficiency virus 1, RES056, MT4, read-out: EC50

Row | Compound | EC50 [1, 15] | selectivity ratio [2] | CC50 [3] | EC50 ([4]; read-out: EC50) | selectivity ratio [5] | EC50 [6] | EC50 [7] | EC50 [8] | EC50 [9] | EC50 [10] | EC50 [11] | IC50 [12] | EC50 ([4]; read-out: pEC50 (converted)) | EC50 ([1]; mt4) | CC50 (MT4) | Ratio EC50 [13] | Ratio EC50 [14]
1 | Cc1cc(C#N)cc(C)c1Oc1ccnc(Nc2ccc(CN3CCCN(S(=O)(=O)N(C)C)CC3)cc2)n1 | > 4.19 µM | < 1 | 4.19 µM | 160 nM | 26 | – | – | – | – | – | – | – | – | – | – | – | –
2 | Cc1cn([C@H]2C[C@H](N=[N+]=[N-])[C@@H](CO)O2)c(=O)[nH]c1=O [ZIDOVUDINE] | 0.028 µM | > 267 | > 7.48 µM | 26 nM | > 293 | 13 nM | 7.1 nM | 0.0086 µM | 19 nM | 8.7 nM | 36 nM | – | – | – | – | – | –
3 | Cc1cc(/C=C/C#N)cc(C)c1Oc1ccnc(Nc2ccc(CN3CCN(S(=O)(=O)C4CC4)CC3)cc2)n1 | > 4.35 µM | < 1 | 4.35 µM | 6.1 nM | 717 | 64 nM | 17 nM | > 4.35 µM | 6.8 nM | 360 nM | 31 nM | – | – | – | – | – | –
4 | Cc1ccnc2c1NC(=O)c1cccnc1N2C1CC1 [NEVIRAPINE] | > 15 µM | – | > 15 µM | 150 nM | – | 5050 nM | 620 nM | 9.07 µM | – | 8040 nM | 170 nM | – | – | – | – | – | –
5 | Cc1cc(/C=C/C#N)cc(C)c1Oc1ccnc(Nc2ccc(CN3CCSCC3)cc2)n1 | 3.56 µM | 4 | 14.9 µM | 4.7 nM | 3160 | 99 nM | 24 nM | 4.28 µM | 4.4 nM | 280 nM | 25 nM | 62 nM | 4.68 nM | – | – | – | –
6 | Cc1cc(C#N)cc(C)c1Oc1ccnc(Nc2ccc(CN3CCCN(S(=O)(=O)C4CC4)CC3)cc2)n1 | – | – | – | 100 nM | – | – | – | – | – | – | – | 200 nM | 100 nM | Not Active | Not Active | – | –
7 | Cc1cc(C#N)cc(C)c1Oc1ccnc(Nc2ccc(CN3CCSCC3)cc2)n1 | > 24.1 µM | < 1 | 24.1 µM | 28 nM | 847 | – | – | – | – | – | – | – | – | – | – | – | –
8 | Cc1cc(C#N)cc(C)c1Oc1ccnc(Nc2ccc(CN3CCN(S(=O)(=O)C(C)C)CC3)cc2)n1 | > 4.54 µM | < 1 | 4.54 µM | 30 nM | 152 | – | – | – | – | – | – | 73 nM | 30.2 nM | – | – | – | –
9 | O=C1Nc2ccc(Cl)cc2[C@@](C#CC2CC2)(C(F)(F)F)O1 [EFAVIRENZ] | 0.34 µM | – | > 6.34 µM | 2.8 nM | – | 5 nM | – | 0.26 µM | – | – | – | – | 2.82 nM | – | – | – | –
10 | C=CC(=O)N1CCN(Cc2ccc(Nc3nccc(Oc4c(C)cc(/C=C/C#N)cc4C)n3)cc2)CC1 | > 5.21 µM | < 1 | 5.21 µM | 5.7 nM | 909 | 84 nM | 34 nM | > 5.21 µM | 10 nM | 870 nM | 41 nM | 71 nM | 5.75 nM | – | – | – | –
11 | Cc1cc(C#N)cc(C)c1Oc1ccnc(Nc2ccc(CN3CCCN(S(C)(=O)=O)CC3)cc2)n1 | > 7.85 µM | < 1 | 7.85 µM | 79 nM | 100 | – | – | – | – | – | – | – | – | – | – | – | –
12 | CCS(=O)(=O)N1CCN(Cc2ccc(Nc3nccc(Oc4c(C)cc(C#N)cc4C)n3)cc2)CC1 | > 5.24 µM | < 1 | 5.24 µM | 17 nM | 310 | – | – | – | – | – | – | – | – | – | – | – | –
13 | Cc1cc(C#N)cc(C)c1Oc1nc(Nc2ccc(C#N)cc2)nc(N)c1Br [ETRAVIRINE] | 0.061 µM | – | > 4.59 µM | 4.2 nM | – | 15 nM | 8.3 nM | 0.019 µM | – | 26 nM | 9.8 nM | – | 4.17 nM | – | – | – | –
14 | Cc1cc(/C=C/C#N)cc(C)c1Oc1ccnc(Nc2ccc(CN3CCCN(S(=O)(=O)C(C)C)CC3)cc2)n1 | > 4.64 µM | < 1 | 4.64 µM | 19 nM | 244 | – | – | – | – | – | – | – | – | – | – | – | –
15 | Cc1cc(/C=C/C#N)cc(C)c1Oc1ccnc(Nc2ccc(CN3CCN(S(=O)(=O)N(C)C)CC3)cc2)n1 | > 3.07 µM | < 1 | 3.07 µM | 4.5 nM | 677 | 92 nM | 29 nM | > 3.07 µM | 11 nM | > 3070 nM | 34 nM | – | – | – | – | – | –
16 | Cc1cc(C#N)cc(C)c1Oc1ccnc(Nc2ccc(CN3CC[S+]([O-])CC3)cc2)n1 | > 54.7 µM | < 1 | 54.7 µM | 17 nM | 3250 | – | – | – | – | – | – | – | – | – | – | – | –
17 | Cc1cc(C#N)cc(C)c1Oc1ccnc(Nc2ccc(CN3CCN(S(=O)(=O)C4CC4)CC3)cc2)n1 | > 4.43 µM | < 1 | 4.43 µM | 25 nM | 174 | – | – | – | – | – | – | – | – | – | – | – | –
18 | Nc1ccn([C@@H]2CS[C@H](CO)O2)c(=O)n1 [LAMIVUDINE] | 6.83 µM | > 13 | > 87.2 µM | 6000 nM | > 15 | 3200 nM | 1460 nM | 2.71 µM | 2740 nM | 2360 nM | 6110 nM | – | – | – | – | – | –
19 | C=CC(=O)N1CCN(Cc2ccc(Nc3nccc(Oc4c(C)cc(C#N)cc4C)n3)cc2)CC1 | > 7.58 µM | < 1 | 7.58 µM | 56 nM | 134 | – | – | – | – | – | – | 160 nM | 56.2 nM | – | – | – | –
20 | Cc1cc(/C=C/C#N)cc(C)c1Oc1ccnc(Nc2ccc(CN3CCN(S(=O)(=O)C(C)C)CC3)cc2)n1 | > 3.81 µM | < 1 | 3.81 µM | 5.6 nM | 685 | 69 nM | 25 nM | > 3.81 µM | 8.5 nM | 230 nM | 36 nM | – | – | – | – | – | –
21 | Cc1cc(/C=C/C#N)cc(C)c1Oc1ccnc(Nc2ccc(CN3CCCN(S(C)(=O)=O)CC3)cc2)n1 | > 17.4 µM | < 1 | 17.4 µM | 27 nM | 644 | – | – | – | – | – | – | – | – | – | – | – | –
22 | Cc1cc(/C=C/C#N)cc(C)c1Oc1ccnc(Nc2ccc(CN3CCCN(S(=O)(=O)N(C)C)CC3)cc2)n1 | > 3.9 µM | < 1 | 3.9 µM | 21 nM | 182 | – | – | – | – | – | – | 94 nM | 20.9 nM | – | – | – | –
23 | Cc1cc(/C=C/C#N)cc(C)c1Oc1ccnc(Nc2ccc(CN3CCS(=O)(=O)CC3)cc2)n1 | 1.08 µM | 17 | 18.5 µM | 2.1 nM | 8640 | 33 nM | 11 nM | 3.09 µM | 1.9 nM | 91 nM | 7.5 nM | 34 nM | 2.09 nM | – | – | 2 | 1.7
24 | Cc1cc(C#N)cc(C)c1Oc1ccnc(Nc2ccc(CN3CCS(=O)(=O)CC3)cc2)n1 | > 53.2 µM | < 1 | 53.2 µM | 14 nM | 3850 | – | – | – | – | – | – | 78 nM | 14.1 nM | – | – | – | –
25 | Cc1cc(/C=C/C#N)cc(C)c1Oc1ccnc(Nc2ccc(CN3CC[S+]([O-])CC3)cc2)n1 | 2.68 µM | 9 | 23.4 µM | 2.4 nM | 9860 | 67 nM | 20 nM | 5.2 µM | 3.4 nM | 350 nM | 9.8 nM | 51 nM | 2.4 nM | – | – | 2 | –
26 | Cc1cc(C#N)cc(C)c1Oc1ccnc(Nc2ccc(CN3CCN(S(=O)(=O)N(C)C)CC3)cc2)n1 | > 4.46 µM | < 1 | 4.46 µM | 48 nM | 93 | – | – | – | – | – | – | – | – | – | – | – | –
27 | CCS(=O)(=O)N1CCN(Cc2ccc(Nc3nccc(Oc4c(C)cc(/C=C/C#N)cc4C)n3)cc2)CC1 | 0.98 µM | 5 | 4.6 µM | 5.7 nM | 810 | 46 nM | 15 nM | 1.28 µM | 4.9 nM | 200 nM | 17 nM | 52 nM | 5.75 nM | – | – | – | –
